Measurements taken from ChEMBL document CHEMBL3603764, “Structure-activity relationship of N-benzenesulfonyl matrinic acid derivatives as a novel class of coxsackievirus B3 inhibitors” (Bioorg Med Chem Lett, 2015).
pIC50: −log10 of the molar value.

How the values were obtained:
Coxsackievirus B3 = assay: Antivirus activity against Coxsackievirus B3 infected in African green monkey vero cells assessed as inhibition of virus-induced cytopathic effect; format: functional, organism-based; conditions: Enterovirus B
[1] = Cytotoxicity against African green monkey Vero cells assessed as growth inhibition after 48 hrs; format: cell-based; conditions: chlorocebus sabaeus, read-out: TC50
[2] = Selectivity index, ratio of TC50 for African green monkey vero cells to IC50 for Coxsackievirus B3; format: toxicity, cell-based; conditions: read-out: Selectivity Index

SMILES	pIC50 (Coxsackievirus B3)	CC50 at 48 h [1] [µM]	selectivity ratio [2]
CN1CCN(CCCC[C@@H]2[C@H]3CCCN4CCC[C@@H](CN2S(=O)(=O)c2cccc(C#N)c2)[C@@H]34)CC1	< 4.65	116	
CN1CCN(CCCC[C@@H]2[C@H]3CCCN4CCC[C@@H](CN2S(=O)(=O)c2ccc(C#N)cc2)[C@@H]34)CC1	< 4.65		
N#Cc1ccc(S(=O)(=O)N2C[C@@H]3CCCN4CCC[C@@H]([C@H]34)[C@H]2CCCCN2CCOCC2)cc1	< 4.65	96.2	
CN(C)CCCC[C@@H]1[C@H]2CCCN3CCC[C@@H](CN1S(=O)(=O)c1ccc(C#N)cc1)[C@@H]23	< 4.65	96.2	
CN1CCN(CCCC[C@@H]2[C@H]3CCCN4CCC[C@@H](CN2S(=O)(=O)c2cccc(C(F)(F)F)c2)[C@@H]34)CC1	< 5.13	51.5	
CC(=O)c1ccc(S(=O)(=O)N2C[C@@H]3CCCN4CCC[C@@H]([C@H]34)[C@H]2CCCCN2CCN(C)CC2)cc1	< 4.65		
CC(=O)c1ccc(S(=O)(=O)N2C[C@@H]3CCCN4CCC[C@@H]([C@H]34)[C@H]2CCCCN2CCOCC2)cc1	< 4.65		
CC(=O)c1ccc(S(=O)(=O)N2C[C@@H]3CCCN4CCC[C@@H]([C@H]34)[C@H]2CCCCN(C)C)cc1	< 4.65		
COC(=O)c1ccc(S(=O)(=O)N2C[C@@H]3CCCN4CCC[C@@H]([C@H]34)[C@H]2CCCCN2CCN(C)CC2)cc1	< 4.65		
CN1CCN(CCCC[C@@H]2[C@H]3CCCN4CCC[C@@H](CN2S(=O)(=O)c2ccc(S(C)(=O)=O)cc2)[C@@H]34)CC1	< 4.65		
COCCCC[C@@H]1[C@H]2CCCN3CCC[C@@H](CN1S(=O)(=O)c1cccc(C#N)c1)[C@@H]23	5.08	332	39.5
COCCCC[C@@H]1[C@H]2CCCN3CCC[C@@H](CN1S(=O)(=O)c1cccc(C(F)(F)F)c1)[C@@H]23	5.88	75.4	57.4
COC(=O)CCC[C@@H]1[C@H]2CCCN3CCC[C@@H](CN1S(=O)(=O)c1ccc(OC(F)(F)F)cc1)[C@@H]23	4.83	191	13
O=S(=O)(c1ccc(OC(F)(F)F)cc1)N1C[C@@H]2CCCN3CCC[C@@H]([C@H]23)[C@H]1CCCCO	5.00	101	10.1
O=C(O)CCC[C@@H]1[C@H]2CCCN3CCC[C@@H](CN1S(=O)(=O)c1ccc(OC(F)(F)F)cc1)[C@@H]23	< 3.90	> 380	
CC(=O)c1ccc(S(=O)(=O)N2C[C@@H]3CCCN4CCC[C@@H]([C@H]34)[C@H]2CCCC(=O)O)cc1	< 3.86	> 413	
O=C(CCC[C@@H]1[C@H]2CCCN3CCC[C@@H](CN1S(=O)(=O)c1cccc(C(F)(F)F)c1)[C@@H]23)N1CCOCC1	5.40	156	38.9
NC(=O)CCC[C@@H]1[C@H]2CCCN3CCC[C@@H](CN1S(=O)(=O)c1cccc(C(F)(F)F)c1)[C@@H]23	5.36	177	40.8
CNC(=O)CCC[C@@H]1[C@H]2CCCN3CCC[C@@H](CN1S(=O)(=O)c1cccc(C(F)(F)F)c1)[C@@H]23	5.59	172	67.2
CN(C)C(=O)CCC[C@@H]1[C@H]2CCCN3CCC[C@@H](CN1S(=O)(=O)c1cccc(C(F)(F)F)c1)[C@@H]23	5.60	168	67.2
CC(=O)c1ccc(S(=O)(=O)N2C[C@@H]3CCCN4CCC[C@@H]([C@H]34)[C@H]2CCCC(=O)N2CCOCC2)cc1	< 3.93	> 361	
CC(=O)c1ccc(S(=O)(=O)N2C[C@@H]3CCCN4CCC[C@@H]([C@H]34)[C@H]2CCCC(=O)N2CCC2)cc1	< 3.90	> 382	
CC(=O)c1ccc(S(=O)(=O)N2C[C@@H]3CCCN4CCC[C@@H]([C@H]34)[C@H]2CCCC(=O)N(C)C)cc1	< 3.89	> 391	
O=C(CCC[C@@H]1[C@H]2CCCN3CCC[C@@H](CN1S(=O)(=O)c1ccc(OC(F)(F)F)cc1)[C@@H]23)N1CCOCC1	5.14	162	22.5
O=C(CCC[C@@H]1[C@H]2CCCN3CCC[C@@H](CN1S(=O)(=O)c1ccc(OC(F)(F)F)cc1)[C@@H]23)N1CCC1	5.25	170	21.2
CN(C)C(=O)CCC[C@@H]1[C@H]2CCCN3CCC[C@@H](CN1S(=O)(=O)c1ccc(OC(F)(F)F)cc1)[C@@H]23	5.56	174	63.3
COC(=O)CCC[C@@H]1[C@H]2CCCN3CCC[C@@H](CN1S(=O)(=O)c1ccc(C(C)=O)cc1)[C@@H]23	5.07	193	22.5
COC(=O)CCC[C@@H]1[C@H]2CCCN3CCC[C@@H](CN1S(=O)(=O)c1ccc(/C(C)=N/O)cc1)[C@@H]23	< 4.41	53.9	
CC(O)c1ccc(S(=O)(=O)N2C[C@@H]3CCCN4CCC[C@@H]([C@H]34)[C@H]2CCCCO)cc1 (some centres undefined)	< 3.85	> 425	
